Assay results: patent publication US20180360091A1, “NUTRITIONAL COMPOSITIONS AND INFANT FORMULAS TO PROMOTE MYELINATION IN THE BRAIN” (NESTEC S.A., priority 2015, published 2018)

Test system: children up to 5 years of age
Assay: Cross-sectional correlation (GLM) of formula nutrient composition with brain myelination
Assay type: in vivo, human
Details: 5 most used formulas; voxel-wise correlations, p<0.05 corrected; inter-variable correlation threshold 0.9
Procedure: MRI brain scans of infants and children between 0 and 5 years were acquired using a white matter imaging technique. This technique provides a quantitative measure, the Myelin Water Fraction (MWF), which is a surrogate marker of myelin content. When mapped as a function of time across early childhood, myelination trajectories can be generated.
Infant formula composition: six infant formulas fed to infants participating in study were analyzed for their composition/level of myelin-relevant nutrients.
Each infant was scanned using the mcDESPOT (multicomponent Driven Equilibrium Single Pulse Observation of T1 and T2) white matter imaging technique Deoni et al. (Magn. Reson. Med. 2008, 60:1372-1387), which provides a quantitative measure of the myelin water fraction (MWF) at each imaging point throughout the brain. All infants were scanned during natural (i.e. non-sedated) sleep using acoustically-muffled mcDESPOT imaging protocols. Total imaging times ranged from 19 minutes for the youngest toddlers to 24 minutes for the older 4 year-old children.
Following image alignment, non-brain signal removal, and correction for main and transmit magnetic field (B0 and B1) inhomogeneities, a three-pool signal model (comprising the myelin-associated water; intra-extra axonal water; and a non-exchanging free-water pool) was fit to the mcDESPOT data to derive voxel-wise MWF maps.
Each child's map was then non-linearly aligned to a study specific template. White matter masks, corresponding to 5 bilateral regions (frontal, temporal, occipital, parietal, and cerebellar WM) as well as the body, genu, and splenium of the corpus callosum were created from common databases, registered to the common template, and superimposed onto each child's MWF map. Mean values for each region were then determined for each child and used for subsequent developmental analysis and trajectory modeling.
From the cohort described above, children up to 5 years of age that were fed different infant formulas during infancy were included in a large correlation analysis to examine the relationship between formula nutrient composition and brain myelination. The 5 most frequently used formulas in that cohort were analyzed for their nutritional composition. A single general linear model (GLM) was constructed that modeled all quantified nutrients, sphingomyelin, and child age. Voxel-wise correlations were calculated with significance defined as p<0.05 corrected for type 1 error using a cluster based correction approach.
To reduce the number of variables in the model, we examined the inter-variable correlation.

Row | Compound | Nutritional driver for myelination in the final general linear model
1 | CCCCC/C=C\C/C=C\C/C=C\C/C=C\CCCC(=O)O [ARA, arachidonic acid] | identified drivers
2 | [Ca] [Calcium] | identified drivers
3 | C[N+](C)(C)CCO [Choline] | identified drivers
4 | Nc1nc2ncc(CNc3ccc(C(=O)N[C@@H](CCC(=O)O)C(=O)O)cc3)nc2c(=O)[nH]1 [Folic Acid, folic acid] | identified drivers
5 | [Mg] [Magnesium] | identified drivers
6 | [P] [Phosphorus] | identified drivers
7 | Iron | identified drivers
8 | Vitamin B12 | identified drivers
9 | Zinc | identified drivers
10 | phosphatidyinositol | nutritional drivers for myelination
11 | phosphatidylcholine | nutritional drivers for myelination
12 | sphingomyelin | nutritional drivers for myelination

Same assay, conditions: in particular cerebellum, internal capsule, visual cortex, frontal lobe

Row | Compound | Association with myelination (myelin water fraction) over time in the brain
13 | sphingomyelin | significant association with myelination
